Tests used:
mice = test: protective index (P.I.), ratio of horizontal screen ED50 over electroshock ED50; assay type: in vivo; settings: enantiomers compared with each other or the racemate
Description: (§1) In the electroshock induced convulsion inhibition assay (E.S.), the compound to be tested was dissolved in water (5%--sufficient hydrochloric acid was added for those compounds which were not isolated as a salt in order to effect dissolution) and administered by gavage to each of three Cox standard strain albino male mice (18-24 g.) at the dose level being investigated. Sixty minutes after compound administration, the mice were subjected to a 0.1 second, 50 milliampere electroshock through corneal electrodes. The animals were examined and evaluated immediately after the electroshock for the occurrence of clonic, flexor tonic, or extensor tonic convulsions, or death and the ED50 was determined for each compound as the dose which inhibited the occurrence of extensor tonic convulsions in one half of the animals immediately after the electroshock. For comparison, 18 milliamperes was usually sufficient to produce extensor tonic convulsions in about half of the control animals; at 50 milliamperes, almost all control animals (receiving vehicle only) died.
(§2) The compounds were also evaluated for determining toxic potential. In determining toxic potential as manifested by neurological deficit, ataxia, or sedation, the "horizontal screen" (H.S.) was employed. This test is well accepted as a measure of impaired motor function in mice. The methodology was identical to that taught by Coughenour, et al., Pharmacology, Biochemistry and Behavior, 6, 351 (1977). For each compound, the ED50 was determined as the dose which caused one half of the animals to fail to reach the top of the screen. The compounds were administered to the mice in the same manner as described above for the electroshock assay 60 minutes before they were tested in the horizontal screen assay.
(§3) From the above two test systems, the protective index (P.I.) can be calculated as the ratio of the horizontal screen ED50 over the ED50 of the electroshock assay. Thus, a large P.I. is indicative of a broader therapeutic range. A large P.I. thus provides a wide margin of safety allowing greater flexibility in treating epilepsy and other convulsive disorders.

[1] = as above; assay type: in vivo, mice; settings: mouse, in vivo, po; mice, gavage; read-out: Protective Index (H.S. ED50 /E.S. ED50)
Description: as §1, §2, §3

[2] = test system: Cox standard strain albino male mice (extensor tonic convulsions); test: electroshock induced convulsion inhibition assay (E.S.); assay type: in vivo; settings: for ED50: Mus musculus, po, 1 h, by gavage, 60 minutes before 0.1 second, 50 milliampere corneal electroshock, inhibition of extensor tonic convulsions in one half of mice
Description: as §1

in vivo = test: in vivo; design: species or system mice; settings: mouse, po
Description: as §2

seizures in man = settings: cited from earlier work
[3] = test system: maximal electroshock seizure; settings: racemic form; reported in U.S. Pat. No. 4,379,165; cited from earlier work

Row | Structure (SMILES) | protective index (in words) (mice) | selectivity ratio at 1 h [1] | ED50 [2] [mg/kg] | TD50 at 1 h (in vivo) [mg/kg] | anticonvulsant potency (in words) ([2]; (S)-isomer compared with (R)-isomer and racemate) | plasma level at which seizures are controlled (seizures in man; Gilman, Goodman, and Gilman, 6th Ed.) [µg/mL] | plasma level at which ataxia is obvious (seizures in man) [ng/mL] | plasma level at which lethargy is apparent (seizures in man) | plasma level at which nystagmus is seen (seizures in man) | protective index (P.I.), TD50 (Rotorod) to ED50 (maximal electroshock seizure) [3]
1 | C[C@@H](NC(=O)c1ccc(N)cc1)c1ccccc1 [(R), (R)-4-amino-N-(1-phenylethyl)benzamide] | increased protective index ratio | 27 | 17.8 | 480 | – | – | – | – | – | –
2 | C[C@H](NC(=O)c1ccc(N)cc1)c1ccccc1 [(S), (S)-4-amino-N-(1-phenylethyl)benzamide] | – | 14.1 | 10 | 141 | more potent as an anticonvulsant agent than either the (R)-isomer or the racemate | – | – | – | – | –
3 | O=C1NC(=O)C(c2ccccc2)(c2ccccc2)N1 [phenytoin] | – | – | – | – | – | ≥ 10 | 30000 | about 40 mcg./ml. | around 20 mcg./ml. | –
4 | CC(NC(=O)c1ccc(N)cc1)c1ccccc1 (racemic) [(R,S), (R,S)-4-amino-N-(1-phenylethyl)benzamide] | – | 8.4 | 12.5 | 105 | – | – | – | – | – | 9.48

From US4629740A, “Anticonvulsant agents” (Eli Lilly and Company, priority 1984, dated 1986)
